Laboratory results: patent US20220395500A1, “SMALL MOLECULE ACTIVATORS OF INTERFERON REGULATORY FACTOR 3 AND METHODS OF USE THEREOF” (Neuralexo, Inc., priority 2020, published 2022)
pEC50: −log10 of the molar value. Read-outs that look alike come from different tables or passages of the source.

Legend:
[1] = test system: NF-κB-SEAP reporter in THP1-Dual cells; experiment: THP1-Dual NF-κB-SEAP reporter counterscreen; assay type: cell-based, human; details: Homo sapiens, THP1-Dual, read-out: THP1 NFkB EC50
Method: (§1) THP1 Dual (InvivoGen) cell suspensions were cultured in RPMI 1640 (Hyclone, Logan, Utah) supplemented with 10% fetal bovine serum (Hyclone), 100 U/mL Normocin (Invivogen), and 50 U/mL PenStrep (Gibco, Dublin, Ireland) between a density of 7·10^5-2·10^6 cells/mL. Every other passage, media was supplemented with 5 U/mL Blasticidin and 100 U/mL Zeocin to maintain the expression constructs. White, flat-bottom 384-well plates (Greiner, Kremsmunster, Austria, 781080) were seeded with 2.5·10^4 cells/well in a total of 50 μL media containing 5 ng/mL phorbolmyristic acid (PMA) using a Matrix WellMate (Thermo Scientific) dispenser. After 48 hours of incubation at 37° C., media was removed using a BioTek ELx405 CW plate washer set to aspirate and wash each well three times with 65 μL 1×PBS. Plates were reloaded with 50 μL media without PMA and treatments added. Lipopolysaccharide in dimethylsulfoxide (DMSO) was transferred to control wells using a HP D300 microdispenser to a final concentration of 313 ng/mL. Compounds from chemical library plates were copied using a Sciclone (Caliper LifeSciences) mounted with a 384-pin transfer tool to obtain a final concentration of 10 μM. After incubation with treatments for 24 hours, 10 μL of supernatant media from each well was transferred into a white, flat-bottom 384-well plate for luminescence readout and a black-walled, clear flat-bottom 384-well plate for absorbance readout.
(§2) Specifically, to enable screening of novel chemical entities (NCEs) in a larger screening effort, a robust high-throughput cell-based assay system for primary hit identification of ISRE activators based on the above-mentioned target validation was desired. Human ISRE activity was verified using a THP-1 monocyte line containing the NF-κB-SEAP and IRF-Lucia luciferase dual reporter (THP1-Dual; Invivogen) that features two reporter genes, SEAP (secreted embryonic alkaline phosphatase) and Lucia luciferase, thereby enabling the simultaneous study of the NF-κB and IRF signalling pathways. The Lucia luciferase reporter is under the control of an ISG54 (interferon-stimulated gene) minimal promoter in conjunction with five IFN-stimulated response elements. The SEAP gene is driven by an IFN-β minimal promoter fused to five copies of the NF-κB consensus transcriptional response element and three copies of the c-Rel binding site. Both reporter proteins are readily measurable in the cell culture supernatant when using QUANTI-LUC™ and QUANTI-Blue SEAP detection reagents.
Using the experimental design and data analysis outlined above, optimized assay conditions were obtained. The responsiveness of the human THP-1 Dual cell line was evaluated in an array of assay conditions to obtain sensitive and reproducible results for the activation of IRF and NF-κB reporters. An optimal plating density and differentiation protocol for these cells was established in a 384-well format. All transfer steps are fully automated using high throughput robotic equipment. Briefly, cells are seeded in differentiation medium using a Matrix WellMate fitted with the WellMate Stacker (Thermo Scientific) and incubated at 37° C. with 5% CO2 for 48 h. Following differentiation, cells are washed using a BioTek ELx405 Select CW plate washer and growth medium added with the Matrix WellMate. Programmed control treatments are added to wells using a D300 digital dispenser fitted with T8+ dispense heads (Hewlett Packard) designed to dispense nanoliter quantities of material. Compounds from library plates are added using a pin tool fitted to a Sciclone ALH 3000 Workstation (Caliper Life Sciences) programmed with Maestro v4.4. After treatment, plates are returned to incubators for 24 hours. To measure reporter expression, supernatant is collected using the Sciclone and dispensed into 2 plates: 1) a white 384-well assay plate for Lucia luminescence measurements and 2) a clear-bottom black 384-well assay plate for SEAP absorbance measurements. […]

[2] = THP1-Dual cytotoxicity (Cell Titer Glo, ATP); assay type: cell-based, human; details: human, THP1-Dual cells, read-out: Thp1 cytotox CC50
In short: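 CC50, the concentration killing half the cells, was derived from ATP-dependent CellTiter-Glo luminescence. Cells were THP1-Dual (human) and compound was tested as an 8-point dose-response series, with viability read in the same plate.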

J774-Dual cytotoxicity = assay type: cell-based, mouse; details: mouse, J774-Dual cells, read-out: J774 cytotox CC50
In short: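 CC50 derived from 8-point concentration series in mouse J774-Dual reporter cells, with viability read by CellTiter-Glo in the same plate. Run in parallel with EC50 and ISRE:NFκB ratio determination for cross-species confirmation.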

[3] = test system: IRF-Lucia luciferase reporter (ISRE) in THP1-Dual cells; experiment: THP1-Dual IRF-Lucia luciferase reporter assay (ISRE activation); assay type: cell-based, human; details: Homo sapiens, THP1-Dual, read-out: THP1 IRF EC50
Method: as §1, §2
The responsiveness of the human THP-1 Dual cell line was evaluated in an array of assay conditions to obtain sensitive and reproducible results for the activation of IRF and NF-κB reporters. […] All transfer steps are fully automated using high throughput robotic equipment. Briefly, cells are seeded in differentiation medium using a Matrix WellMate fitted with the WellMate Stacker (Thermo Scientific) and incubated at 37° C. with 5% CO2 for 48 h. Following differentiation, cells are washed using a BioTek ELx405 Select CW plate washer and growth medium added with the Matrix WellMate. Programmed control treatments are added to wells using a D300 digital dispenser fitted with T8+ dispense heads (Hewlett Packard) designed to dispense nanoliter quantities of material. Compounds from library plates are added using a pin tool fitted to a Sciclone ALH 3000 Workstation (Caliper Life Sciences) programmed with Maestro v4.4. After treatment, plates are returned to incubators for 24 hours. To measure reporter expression, supernatant is collected using the Sciclone and dispensed into 2 plates: 1) a white 384-well assay plate for Lucia luminescence measurements and 2) a clear-bottom black 384-well assay plate for SEAP absorbance measurements.

[4] = Human Reporter Cell Line, 8-point dose response

Row | pEC50 [3, 4] | pEC50 ([3]; Human Reporter Cell Line THP1) | Structure (SMILES) | pEC50 ([1]; Human Reporter Cell Line THP1) | CC50 ([2]; Human Reporter Cell Line THP1) | CC50 (J774-Dual cytotoxicity; Mouse Reporter Cell Line J774) | pEC50 [1, 4] | CC50 ([2]; Human Reporter Cell Line) | CC50 (J774-Dual cytotoxicity; Mouse Reporter Cell Line)
1 | – | – | Oc1ccc(-c2nc3ccc(O)cc3o2)cc1 [ND-74] | 4.49 | > 25 µM | > 25 µM | – | – | –
2 | 5.38 | – | COC(=O)Cc1ccc(NC(=O)c2ccc(NC(=O)c3ccco3)cc2)cc1 [NC-3] | – | – | – | ~5.21 | > 25 µM | > 25 µM
3 | – | – | COc1ccc(C(=O)Nc2cc(-c3nc4cc(OCCCN5CCCC5)ccc4o3)ccc2C)cc1[N+](=O)[O-] [ND-92] | ~5.63 | > 25 µM | > 25 µM | – | – | –
4 | 5.48 | – | CCOc1cccc(COc2ccc(C(=O)Nc3ccc(N4CCN(C(=O)c5cccs5)CC4)cc3)cn2)c1 [NA-71] | – | – | – | 5.18 | > 10 µM | > 10 µM
5 | – | – | COc1c(C)cc(Br)cc1C(=O)Nc1ccc(N2CCN(C(=O)c3cccs3)CC2)cc1 [NA-31] | – | – | – | ~5.49 | > 25 µM | > 25 µM
6 | – | – | Cc1ccc(-c2nc3cc(Cl)ccc3o2)cc1NC(=O)c1cc([N+](=O)[O-])c(C)c([N+](=O)[O-])c1 [ND-61] | ~5.25 | > 25 µM | > 25 µM | – | – | –
7 | – | ~8.65 | Cc1c(C(=O)Nc2ccc3oc(-c4cccnc4)nc3c2)cccc1[N+](=O)[O-] [ND-42] | ~4.81 | > 25 µM | > 25 µM | – | – | –
8 | – | – | Cc1ccc(-c2nc3ccccc3s2)cc1NC(=O)c1cc(I)ccc1Cl [ND-62] | ~5.03 | > 25 µM | > 25 µM | – | – | –
9 | – | 4.61 | Cc1cc2nc(-c3ccc(C)c(NC(=O)c4ccc([N+](=O)[O-])cc4Cl)c3)oc2cc1C [ND-102] | 4.24 | – | – | – | – | –
10 | – | – | COc1ccc2oc(-c3ccc(C)c(NC(=O)c4ccc(OC)c([N+](=O)[O-])c4)c3)nc2c1 [ND-86] | ~5.41 | > 25 µM | > 25 µM | – | – | –
